Target: T1, Met receptor (EGFR/Met chimeric cells, EMR) (Homo sapiens, UniProt P08581)
T1 construct: expressed in transfected cells; the other entry of the earlier key: EGFR (P00533, Epidermal growth factor receptor)
Test: Met Autophosphorylation Assay
Type: biochemical
Settings: protocol P.130
In short: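 Transiently transfected EGFR/Met chimeric (EMR) cells were lysed in HNTG with 1 mM PMSF. Met was captured on plates coated with goat anti-rabbit IgG, then rabbit anti-Met (C-28), using 90 μg lysate/100 μl for 60 min at room temperature. Phosphotyrosine was read by ELISA.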

T1 sequence (P08581 with tags, fused parts or gaps): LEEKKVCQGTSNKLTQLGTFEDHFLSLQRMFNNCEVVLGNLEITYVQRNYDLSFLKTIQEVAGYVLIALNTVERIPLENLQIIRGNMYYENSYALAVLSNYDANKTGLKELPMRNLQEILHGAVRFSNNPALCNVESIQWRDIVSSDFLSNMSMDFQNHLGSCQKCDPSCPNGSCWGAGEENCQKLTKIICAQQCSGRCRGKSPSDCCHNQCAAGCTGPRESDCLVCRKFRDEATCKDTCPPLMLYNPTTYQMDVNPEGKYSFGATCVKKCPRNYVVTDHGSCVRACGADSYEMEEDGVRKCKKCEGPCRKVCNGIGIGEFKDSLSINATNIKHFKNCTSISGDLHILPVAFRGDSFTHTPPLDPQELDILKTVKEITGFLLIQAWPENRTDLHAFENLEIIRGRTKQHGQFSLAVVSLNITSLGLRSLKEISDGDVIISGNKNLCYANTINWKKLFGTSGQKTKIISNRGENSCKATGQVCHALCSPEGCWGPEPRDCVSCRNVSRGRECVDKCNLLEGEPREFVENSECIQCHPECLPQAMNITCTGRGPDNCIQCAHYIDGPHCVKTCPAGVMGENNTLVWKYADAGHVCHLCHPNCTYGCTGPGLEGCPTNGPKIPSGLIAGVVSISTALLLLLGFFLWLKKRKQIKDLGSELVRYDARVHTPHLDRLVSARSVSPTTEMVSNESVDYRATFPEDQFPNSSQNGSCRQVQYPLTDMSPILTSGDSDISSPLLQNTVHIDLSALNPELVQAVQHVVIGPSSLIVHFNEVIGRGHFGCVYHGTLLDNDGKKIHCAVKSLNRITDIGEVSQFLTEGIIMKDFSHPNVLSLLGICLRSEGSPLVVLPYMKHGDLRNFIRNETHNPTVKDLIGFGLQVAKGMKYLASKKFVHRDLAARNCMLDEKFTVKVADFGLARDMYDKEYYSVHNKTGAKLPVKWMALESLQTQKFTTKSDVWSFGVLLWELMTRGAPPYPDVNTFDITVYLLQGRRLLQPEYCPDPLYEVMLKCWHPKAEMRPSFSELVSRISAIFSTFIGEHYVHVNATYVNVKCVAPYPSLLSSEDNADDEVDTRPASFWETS

Structure (SMILES)	Met Kinase % Inhibition (P.130)
O=C1Nc2ccc(I)cc2C1=Cc1ccc(CO)o1 [10739/B11]	84.9%
Cc1c(Br)ccc2c1C(=Cc1ccc(CO)o1)C(=O)N2 [10739/C11]	61.0%
